Laboratory results: publication PMC11204923, “Marine Cytotoxin Santacruzamate A Derivatives as Potent HDAC1-3 Inhibitors and Their Synergistic Anti-Leukemia Effects with Venetoclax” (Marine Drugs, 2024)
Several values for one entry are separate records, joined by “and”; a condition that tells them apart may be missing. Equal entries are not always repeated.

How the values were obtained:
HDAC3 = molecular target: T1, HDAC3 (Homo sapiens, UniProt O15379); assay: In vitro HDAC inhibition fluorescence assay, HDAC3; assay type: biochemical
T1 construct: purchased BPS Bioscience
Experimental: All of the HDAC enzymes were purchased from BPS Bioscience. In vitro HDAC inhibition assays were conducted as previously described. In brief, 20 μL of recombinant HDAC enzyme solution (HDAC1-9, 11) was mixed with various concentrations of the tested compound (20 μL). […] After incubation at 37 °C for 2 h, the catalysis was stopped by the addition of 10 μL of developer containing 30 mg/mL trypsin and 6 μM trichostatin A (TSA). Then, 30 min later, the fluorescence intensity was measured using a microplate reader at excitation and emission wavelengths of 360 and 460 nm, respectively. The inhibition ratios were calculated from the fluorescence intensity readings of tested wells relative to those of control wells, and the IC50 curves and values were determined by GraphPad Prism 6.0, using the “log(inhibitor) vs. normalized response-variable slope” function.

HDAC8 = molecular target: T2, HDAC8 (Homo sapiens, UniProt Q9BY41); assay: In vitro HDAC inhibition fluorescence assay, HDAC8; assay type: biochemical
T2 construct: purchased BPS Bioscience
T2 sequence (Q9BY41 1-377): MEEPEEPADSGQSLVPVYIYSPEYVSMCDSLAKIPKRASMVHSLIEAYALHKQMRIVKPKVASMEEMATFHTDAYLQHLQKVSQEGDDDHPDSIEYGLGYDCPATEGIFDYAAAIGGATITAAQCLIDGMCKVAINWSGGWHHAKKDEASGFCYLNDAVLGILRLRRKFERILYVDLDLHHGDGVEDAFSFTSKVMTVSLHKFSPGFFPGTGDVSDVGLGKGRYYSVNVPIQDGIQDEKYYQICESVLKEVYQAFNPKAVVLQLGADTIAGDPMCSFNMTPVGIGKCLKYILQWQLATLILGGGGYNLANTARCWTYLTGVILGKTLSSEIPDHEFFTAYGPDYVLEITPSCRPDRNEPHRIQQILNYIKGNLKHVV
Experimental: (§1) All of the HDAC enzymes were purchased from BPS Bioscience. In vitro HDAC inhibition assays were conducted as previously described. In brief, 20 μL of recombinant HDAC enzyme solution (HDAC1-9, 11) was mixed with various concentrations of the tested compound (20 μL). The mixture was incubated at 37 °C for 1 h, and then, 10 μL of fluorogenic substrate (Boc-Lys (acetyl)-AMC for HDAC1, 2, 3 and 6; Boc-Lys (trifluoroacetyl)AMC for HDAC4, 5, 7, 8, 9 and 11) was added to achieve a final concentration of 50 μM. After incubation at 37 °C for 2 h, the catalysis was stopped by the addition of 10 μL of developer containing 30 mg/mL trypsin and 6 μM trichostatin A (TSA). Then, 30 min later, the fluorescence intensity was measured using a microplate reader at excitation and emission wavelengths of 360 and 460 nm, respectively. The inhibition ratios were calculated from the fluorescence intensity readings of tested wells relative to those of control wells, and the IC50 curves and values were determined by GraphPad Prism 6.0, using the “log(inhibitor) vs. normalized response-variable slope” function.

[1] = In vitro stability in rat plasma; assay type: in vitro ADME; conditions: 37 °C, within 24 h, degradation beginning after about 8 h
Experimental: Equal samples were collected, and 600 μL acetonitrile was added to quench enzyme reactions. The reaction mixture was swirled for 30 s and then centrifuged at 15,000 rpm at 4 °C for 15 min. The supernatant of each sample was analyzed directly by HPLC (1260 Infinity II, Agilent Technologies, Waldbronn, Germany).

HDAC4 = molecular target: T3, HDAC4 (Homo sapiens, UniProt P56524); assay: In vitro HDAC inhibition fluorescence assay, HDAC4; assay type: biochemical
T3 construct: purchased BPS Bioscience
Experimental: as §1

HDAC5 = molecular target: T4, HDAC5 (Homo sapiens, UniProt Q9UQL6); assay: In vitro HDAC inhibition fluorescence assay, HDAC5; assay type: biochemical
T4 construct: purchased BPS Bioscience
Experimental: as §1

Kasumi-1 cells = assay: Cell viability assay (resazurin), Kasumi-1; assay type: cell-based; conditions: Homo sapiens, Kasumi 1, 72 h; read-out: IC50 anti-proliferative activity Kasumi-1
Experimental: The AML cell lines MV4-11, THP-1, KASUMI-1 and HL-60 were purchased from Procell Life Science & Technology Co., Ltd. (Wuhan, China). THP-1 and KASUMI-1 were cultured in RPMI-1640 complete medium containing 10% fetal bovine serum and 1% penicillin and streptomycin. MV4-11 was cultured in IMDM complete medium containing 10% fetal bovine serum and 1% penicillin and streptomycin. HL-60 was cultured in IMDM complete medium containing 20% fetal bovine serum and 1% penicillin and streptomycin. All cell lines were cultured in an incubator with humidity set at 95%, temperature at 37 °C and 5% CO2.
MV4-11, THP-1, KASUMI-1 and HL-60 cells were plated in 96-well transparent plates (10,000 to 15,000 cells/100 μL) and after incubation overnight, cells were treated with gradient-diluted inhibitors with several concentrations. After the cells were incubated with inhibitors for 72 h, 1 mg/mL of Resazurin (Sigma-Aldrich, Saint Louis, MO, USA) was added (working concentration was 0.1 mg/mL). After incubation at 37 °C for about 3 h, the fluorescence intensity of […] was measured at 560 nm/590 nm (excitation/emission) with a Spectra Max i3 Microplate Reader, and the cell viability was determined. The IC50 curve was drawn using GraphPad Prism 9.5 software.

T1 sequence (O15379 whole entry): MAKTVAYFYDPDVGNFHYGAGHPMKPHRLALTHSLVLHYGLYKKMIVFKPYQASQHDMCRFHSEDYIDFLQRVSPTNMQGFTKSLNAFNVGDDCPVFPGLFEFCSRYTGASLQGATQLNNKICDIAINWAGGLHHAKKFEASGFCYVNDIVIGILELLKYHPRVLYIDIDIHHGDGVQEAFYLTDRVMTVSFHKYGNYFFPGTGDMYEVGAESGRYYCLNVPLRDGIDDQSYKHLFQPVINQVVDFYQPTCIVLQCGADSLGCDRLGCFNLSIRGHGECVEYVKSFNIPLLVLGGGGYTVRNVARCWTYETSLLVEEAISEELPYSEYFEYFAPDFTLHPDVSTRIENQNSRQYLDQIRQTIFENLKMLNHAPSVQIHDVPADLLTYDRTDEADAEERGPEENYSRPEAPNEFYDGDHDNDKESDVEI
T1 sequence (Q9Y618 395-489 partner limits assumed): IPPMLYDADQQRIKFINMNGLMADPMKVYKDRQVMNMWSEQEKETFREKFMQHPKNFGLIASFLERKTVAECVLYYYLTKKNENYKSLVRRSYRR
T4 sequence (Q9UQL6 whole entry): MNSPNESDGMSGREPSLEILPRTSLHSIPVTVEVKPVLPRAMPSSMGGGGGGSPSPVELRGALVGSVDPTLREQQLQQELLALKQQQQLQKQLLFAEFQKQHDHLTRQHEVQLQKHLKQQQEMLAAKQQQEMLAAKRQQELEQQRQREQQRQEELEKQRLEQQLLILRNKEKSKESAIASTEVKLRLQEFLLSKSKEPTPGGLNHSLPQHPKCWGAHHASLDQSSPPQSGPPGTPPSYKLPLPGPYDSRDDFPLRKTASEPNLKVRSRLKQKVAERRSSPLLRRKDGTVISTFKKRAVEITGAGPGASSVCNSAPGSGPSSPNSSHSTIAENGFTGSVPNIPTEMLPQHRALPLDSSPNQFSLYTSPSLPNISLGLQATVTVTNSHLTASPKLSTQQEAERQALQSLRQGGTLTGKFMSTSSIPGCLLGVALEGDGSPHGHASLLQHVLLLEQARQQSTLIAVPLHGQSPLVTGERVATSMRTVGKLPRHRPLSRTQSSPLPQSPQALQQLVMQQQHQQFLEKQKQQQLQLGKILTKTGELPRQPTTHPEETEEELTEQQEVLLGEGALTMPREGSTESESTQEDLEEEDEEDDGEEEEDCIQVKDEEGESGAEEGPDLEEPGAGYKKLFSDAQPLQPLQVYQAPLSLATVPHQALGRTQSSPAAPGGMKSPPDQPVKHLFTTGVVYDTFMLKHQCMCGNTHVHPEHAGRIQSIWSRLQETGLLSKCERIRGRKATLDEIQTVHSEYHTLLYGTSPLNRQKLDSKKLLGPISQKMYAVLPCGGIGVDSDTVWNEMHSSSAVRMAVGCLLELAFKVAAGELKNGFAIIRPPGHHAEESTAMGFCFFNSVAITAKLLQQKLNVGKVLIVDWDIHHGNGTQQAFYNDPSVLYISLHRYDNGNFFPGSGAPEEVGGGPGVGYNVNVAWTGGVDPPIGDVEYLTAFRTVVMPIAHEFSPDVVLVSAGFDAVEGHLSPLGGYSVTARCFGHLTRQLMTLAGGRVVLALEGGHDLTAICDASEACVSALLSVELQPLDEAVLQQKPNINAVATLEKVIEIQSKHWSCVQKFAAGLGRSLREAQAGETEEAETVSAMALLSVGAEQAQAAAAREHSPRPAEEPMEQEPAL
T3 sequence (P56524 whole entry): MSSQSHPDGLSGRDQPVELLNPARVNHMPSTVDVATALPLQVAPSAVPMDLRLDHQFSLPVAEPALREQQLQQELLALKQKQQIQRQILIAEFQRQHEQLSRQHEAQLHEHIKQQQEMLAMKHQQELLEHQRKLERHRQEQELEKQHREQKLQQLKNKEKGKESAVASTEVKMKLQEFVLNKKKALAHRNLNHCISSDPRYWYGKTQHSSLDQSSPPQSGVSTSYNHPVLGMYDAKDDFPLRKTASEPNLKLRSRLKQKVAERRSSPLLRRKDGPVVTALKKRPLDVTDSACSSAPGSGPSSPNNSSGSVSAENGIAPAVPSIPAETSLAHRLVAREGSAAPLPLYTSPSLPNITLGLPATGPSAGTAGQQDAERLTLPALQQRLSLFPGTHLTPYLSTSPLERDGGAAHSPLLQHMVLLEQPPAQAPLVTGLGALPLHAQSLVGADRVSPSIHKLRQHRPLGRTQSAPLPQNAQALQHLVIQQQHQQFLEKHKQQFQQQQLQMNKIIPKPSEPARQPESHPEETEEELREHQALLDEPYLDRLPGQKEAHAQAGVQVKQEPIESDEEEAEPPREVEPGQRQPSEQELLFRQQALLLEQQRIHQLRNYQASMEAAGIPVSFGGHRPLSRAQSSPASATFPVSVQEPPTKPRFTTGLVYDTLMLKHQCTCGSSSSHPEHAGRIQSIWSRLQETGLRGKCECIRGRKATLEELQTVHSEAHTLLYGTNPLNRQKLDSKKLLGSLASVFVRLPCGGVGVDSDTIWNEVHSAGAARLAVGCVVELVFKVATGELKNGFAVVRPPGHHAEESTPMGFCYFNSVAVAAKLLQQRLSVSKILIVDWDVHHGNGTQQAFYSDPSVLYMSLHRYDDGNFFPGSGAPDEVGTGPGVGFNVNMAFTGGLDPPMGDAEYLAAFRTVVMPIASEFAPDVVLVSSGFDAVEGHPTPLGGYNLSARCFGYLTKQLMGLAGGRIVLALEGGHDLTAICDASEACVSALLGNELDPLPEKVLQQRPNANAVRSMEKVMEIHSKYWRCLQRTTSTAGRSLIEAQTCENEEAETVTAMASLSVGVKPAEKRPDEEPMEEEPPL

CCCNNC(=O)C=Cc1ccc(CNCCc2ccccc2)cc1 [Compound 25c, 3-(4-((Phenethylamino)methyl)phenyl)-N′-propylacrylohydrazide]
IC50 (HDAC3): 2.4 nM and 2.39 nM and 2.3 nM | inhibition at 0.01 µM (HDAC3; 10 nM, read-out: Inhibition Rate of HDAC3 (%)): > 95% | inhibition at 0.1 µM (HDAC3; 100 nM, read-out: Inhibition Rate of HDAC3 (%)): 95.1 ± 0.1% | IC50 (HDAC8): 4110 ± 630 nM | degradation in rat plasma [1]: 35.60% | IC50 (HDAC4): > 10000 nM | IC50 (HDAC5): > 10000 nM | IC50 (Kasumi-1 cells): 338 ± 125 nM
